Data from PubChem BioAssay AID2742 (NMMLSC, 2010).
The source made the active and inactive calls.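 How the source made its calls: active means fitted half-maximal concentration for changing background-corrected GFP signal at or below a set limit; inactive means the rest.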

Assay: TOR pathway reporter MEP2-GFP, concentration series – S. cerevisiae, flow cytometry GFP, MLPCN hits, dose response (AID 2742);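 further: GFP tag reports level of MEP2 protein as a downstream target of TOR signalling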
Conditions: S. cerevisiae MEP2-GFP strain, flow cytometry fluorescence, 3 h; at 33 µM (top of the series)
In the case of `CC(Oc1ccc(Cl)cc1)C(=O)NNC(=S)NC(=O)c1ccco1` (stereo not given), the GFP fluorescence (kMESF), higher = increase was 5.05 kMESF (inactive).
With `O=C1C=CC(=O)N1c1ccc(Sc2ccc([N+](=O)[O-])cc2)cc1` the GFP fluorescence (kMESF), higher = increase was 2.59 kMESF (inactive).
With `C=CCN1C(=O)/C(=C/c2cccs2)C(=O)NC1=S` the GFP fluorescence (kMESF), higher = increase was 3.81 kMESF (inactive).
In the case of `O=C(/C=C/c1ccc(Br)cc1)NC(=S)NNC(=O)c1ccco1`, the GFP fluorescence (kMESF), higher = increase was 3.07 kMESF (inactive).
In the case of `ClC(Cl)(c1nnnn1-c1ccccc1)c1nnnn1-c1ccccc1`, the GFP fluorescence (kMESF), higher = increase was 4.4 kMESF (inactive).
For `Cc1cc2ccccn2c1C(=O)c1ccc([N+](=O)[O-])o1`, the GFP fluorescence (kMESF), higher = increase was -12.4 kMESF (inactive).
With `O=C1NC(=O)N(c2ccccc2)C(=O)/C1=C/c1ccc(Sc2ccccc2)o1` the GFP fluorescence (kMESF), higher = increase was 4.03 kMESF (inactive).
For `COc1ccc(NC(=O)/C(C#N)=C/c2ncc([N+](=O)[O-])n2C)c(OC)c1`, the GFP fluorescence (kMESF), higher = increase was 4.5 kMESF (inactive).
With `O=C(NC(=S)Nc1ccc2oc(=O)ccc2c1)c1cccc(Cl)c1` the GFP fluorescence (kMESF), higher = increase was 1.7 kMESF (inactive).
For `Cc1ccc(NN2C(=O)C=C(c3ccc(Cl)cc3)C2=O)cc1`, the GFP fluorescence (kMESF), higher = increase was 4.9 kMESF (inactive).
For `COc1ccc(OC)c(S(=O)(=O)ON2C(=O)c3ccccc3C2=O)c1`, the GFP fluorescence (kMESF), higher = increase was -8.29 kMESF (inactive).
For `COc1cccc(N=Cc2nc(-c3ccccc3)oc2OC(C)=O)c1`, the GFP fluorescence (kMESF), higher = increase was 3.64 kMESF (inactive).
In the case of `CC(C)(C)c1ccc(NC(=O)COC(=O)c2ccc([N+](=O)[O-])s2)cc1`, the GFP fluorescence (kMESF), higher = increase was 2.3 kMESF (inactive).
With `COc1cccc(C(=O)Nc2nnc(-c3ccc(Cl)cc3)o2)c1` the GFP fluorescence (kMESF), higher = increase was 4.71 kMESF (inactive).
With `COc1cc(SSc2cc(OC)cc([N+](=O)[O-])c2N)c(N)c([N+](=O)[O-])c1` the GFP fluorescence (kMESF), higher = increase was 5.29 kMESF (inactive).
With `O=C1C=CC(=O)N1c1ccc(O)cc1` the GFP fluorescence (kMESF), higher = increase was 6.77 kMESF (inactive).
In the case of `COc1ccc(N2C(=O)CC(Sc3ncn[nH]3)C2=O)c(OC)c1` (stereo not given), the GFP fluorescence (kMESF), higher = increase was 3.82 kMESF (inactive).
In the case of `C/C(=N\NC(=O)c1cccc(Br)c1)c1ccccn1`, the GFP fluorescence (kMESF), higher = increase was 4.33 kMESF (inactive).
For `O=C(NC(=S)NNC(=O)c1cnccn1)c1ccc(Cl)cc1`, the GFP fluorescence (kMESF), higher = increase was 3.51 kMESF (inactive).
For `CC1(C(=O)NC(=S)NNC(=O)c2ccncc2)CCCCC1`, the GFP fluorescence (kMESF), higher = increase was 3.51 kMESF (inactive).
With `O=c1[nH]c(-c2ccccn2)nc(C(F)(F)F)c1Br` the GFP fluorescence (kMESF), higher = increase was 4.02 kMESF (inactive).
In the case of `COc1ccc(C(=O)NNC(=S)NC(=O)/C=C/c2cccs2)cc1`, the GFP fluorescence (kMESF), higher = increase was 5.04 kMESF (inactive).
With `N#Cc1nccnc1S(=O)(=O)c1cccs1` the GFP fluorescence (kMESF), higher = increase was 2.29 kMESF (inactive).
With `CS(=O)(=O)c1nc(-c2ccccc2)cc(C(F)(F)F)n1` the GFP fluorescence (kMESF), higher = increase was 7.24 kMESF (inactive).
For `CN1CCN(C(=O)c2cc(COc3c(F)cccc3F)on2)CC1c1ccccc1` (stereo not given), the GFP fluorescence (kMESF), higher = increase was 5.87 kMESF (inactive).
With `O=C(O)c1ccc2c(c1)C(=O)/C(=C/c1ccccc1)C2=O` the GFP fluorescence (kMESF), higher = increase was 2.47 kMESF (inactive).
For `O/C=c1\ccc2cccc3nc(C(F)(F)F)nc1c23`, the GFP fluorescence (kMESF), higher = increase was 14.3 kMESF (inactive).
In the case of `Oc1ccc(N=Nc2ccccc2)o1`, the GFP fluorescence (kMESF), higher = increase was 4.33 kMESF (inactive).
With `O=c1oc2cc(Oc3c([N+](=O)[O-])cc(C(F)(F)F)cc3[N+](=O)[O-])ccc2c2c1CCCC2` the GFP fluorescence (kMESF), higher = increase was 4.77 kMESF (inactive).
In the case of `COc1ccc2c(/C=C/c3cc[n+](C)cc3)c[nH]c2c1`, the GFP fluorescence (kMESF), higher = increase was 4.86 kMESF (inactive).
